From PubChem BioAssay AID2060900 (Molecular Pharmacology Branch, DTP, NCI, 2025)
pIC50: −log10 of the molar value. Where “and” joins values, the source holds several entries; their conditions need not be identical. Equal values may be shown once. Values belong to the compound of their own block, whether it stands above or below them.

Tested on: 521955-158-R2-J5-PDC complex spheroids, viability
Experiment: Anticancer human tumor 521955-158-R2-J5-PDC patient-derived pancreatic carcinoma cell line growth inhibition [RAS]
Settings: for viability, T/C: stronger effect = lower value
Outline: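 Agents were tested in combination matrices in half-log decrements from a top concentration at or near clinical Cmax (10 microM if undetermined). Targets were multi-cell spheroids of tumour lines plus HUVEC and MSC stromal cells.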

[1] = curve of first compound, second compound 0.0316 µM
[2] = curve of first compound, second compound 0.1 µM
[3] = curve of first compound, second compound 0.316 µM
[4] = curve of first compound, second compound 1 µM
[5] = curve of first compound, second compound 3.16 µM
[6] = curve of first compound, second compound 10 µM
[7] = second compound 0.0316 µM, first compound 0.0316 µM
[8] = second compound 0.0316 µM, first compound 0.1 µM
[9] = second compound 0.0316 µM, first compound 0.316 µM
[10] = second compound 0.0316 µM, first compound 1 µM
[11] = second compound 0.1 µM, first compound 0.0316 µM
[12] = second compound 0.1 µM, first compound 0.1 µM
[13] = second compound 0.1 µM, first compound 0.316 µM
[14] = second compound 0.1 µM, first compound 1 µM
[15] = second compound 0.316 µM, first compound 0.0316 µM
[16] = second compound 0.316 µM, first compound 0.1 µM
[17] = second compound 0.316 µM, first compound 0.316 µM
[18] = second compound 0.316 µM, first compound 1 µM
[19] = second compound 1 µM, first compound 0.0316 µM
[20] = second compound 1 µM, first compound 0.1 µM
[21] = second compound 1 µM, first compound 0.316 µM
[22] = second compound 1 µM, first compound 1 µM
[23] = second compound 3.16 µM, first compound 0.0316 µM
[24] = second compound 3.16 µM, first compound 0.1 µM
[25] = second compound 3.16 µM, first compound 0.316 µM
[26] = second compound 3.16 µM, first compound 1 µM
[27] = second compound 10 µM, first compound 0.0316 µM
[28] = second compound 10 µM, first compound 0.1 µM
[29] = second compound 10 µM, first compound 0.316 µM
[30] = second compound 10 µM, first compound 1 µM
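Also: compound exposure lasted seven days before the viability read.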
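For viability, T/C in this document: spheroids also contain HUVEC endothelial cells and mesenchymal stem cells as stroma.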

pIC50 [1]: > 7.50
pIC50 [2]: > 7.50
pIC50 [3]: > 7.50
pIC50 [4]: > 7.50
pIC50 [5]: > 7.50
pIC50 [6]: > 7.50
SMILES: CC(=O)OC12COC1CC(O)C1(C)C(=O)C(O)C3=C(C)C(OC(=O)C(O)C(NC(=O)OC(C)(C)C)c4ccccc4)CC(O)(C(OC(=O)c4ccccc4)C21)C3(C)C (stereo not drawn) + C#Cc1c(F)ccc2cc(O)cc(-c3ncc4c(N5CC6CCC(C5)N6)nc(OCC56CCCN5CC(F)C6)nc4c3F)c12
viability, T/C [7]: 32.5%
viability, T/C [8]: 35.9%
viability, T/C [9]: 32.6%
viability, T/C [10]: 30.2%
viability, T/C (second compound 0.0316 µM, first compound 3.16 µM): 37.5%
viability, T/C (second compound 0.0316 µM, first compound 10 µM): 47.2%
viability, T/C [11]: 33.3%
viability, T/C [12]: 39.6%
viability, T/C [13]: 35.2%
viability, T/C [14]: 37.7%
viability, T/C (second compound 0.1 µM, first compound 3.16 µM): 35.6%
viability, T/C (second compound 0.1 µM, first compound 10 µM): 40.4%
viability, T/C [15]: 33.2%
viability, T/C [16]: 31.7%
viability, T/C [17]: 28.6%
viability, T/C [18]: 30.9%
viability, T/C (second compound 0.316 µM, first compound 3.16 µM): 37%
viability, T/C (second compound 0.316 µM, first compound 10 µM): 38.7%
viability, T/C [19]: 21.7%
viability, T/C [20]: 34.3%
viability, T/C [21]: 32.6%
viability, T/C [22]: 29.4%
viability, T/C (second compound 1 µM, first compound 3.16 µM): 51.5%
viability, T/C (second compound 1 µM, first compound 10 µM): 40.5%
viability, T/C [23]: 27.4%
viability, T/C [24]: 33.3%
viability, T/C [25]: 30.8%
viability, T/C [26]: 33.4%
viability, T/C (second compound 3.16 µM, first compound 3.16 µM): 31.1%
viability, T/C (second compound 3.16 µM, first compound 10 µM): 33%
viability, T/C [27]: 24.8%
viability, T/C [28]: 34.1%
viability, T/C [29]: 28.3%
viability, T/C [30]: 28.7%
viability, T/C (second compound 10 µM, first compound 3.16 µM): 32.1%
viability, T/C (second compound 10 µM, first compound 10 µM): 25.1%

pIC50 [1]: > 8.50
pIC50 [2]: > 8.50
pIC50 [3]: > 8.50
pIC50 [4]: 8.43
pIC50 [5]: > 8.50
pIC50 [6]: > 8.50
SMILES: Nc1ccn(C2OC(CO)C(O)C2(F)F)c(=O)n1 (stereo not drawn) + C#Cc1c(F)ccc2cc(O)cc(-c3ncc4c(N5CC6CCC(C5)N6)nc(OCC56CCCN5CC(F)C6)nc4c3F)c12
viability, T/C (second compound 0.0316 µM, first compound 0.00316 µM): 48.8%
viability, T/C (second compound 0.0316 µM, first compound 0.01 µM): 39.5%
viability, T/C [7]: 32.6%
viability, T/C [8]: 24.9%
viability, T/C [9]: 24.1%
viability, T/C [10]: 18.5%
viability, T/C (second compound 0.1 µM, first compound 0.00316 µM): 44.5%
viability, T/C (second compound 0.1 µM, first compound 0.01 µM): 44.9%
viability, T/C [11]: 28.8%
viability, T/C [12]: 20.9%
viability, T/C [13]: 21%
viability, T/C [14]: 15.4%
viability, T/C (second compound 0.316 µM, first compound 0.00316 µM): 43.3%
viability, T/C (second compound 0.316 µM, first compound 0.01 µM): 42.9%
viability, T/C [15]: 28.8%
viability, T/C [16]: 23.4%
viability, T/C [17]: 17.4%
viability, T/C [18]: 17.8%
viability, T/C (second compound 1 µM, first compound 0.00316 µM): 52.4%
viability, T/C (second compound 1 µM, first compound 0.01 µM): 34.6%
viability, T/C [19]: 27.7%
viability, T/C [20]: 16.4%
viability, T/C [21]: 15.3%
viability, T/C [22]: 14%
viability, T/C (second compound 3.16 µM, first compound 0.00316 µM): 48.5%
viability, T/C (second compound 3.16 µM, first compound 0.01 µM): 41.6%
viability, T/C [23]: 27.5%
viability, T/C [24]: 20.8%
viability, T/C [25]: 15%
viability, T/C [26]: 13%
viability, T/C (second compound 10 µM, first compound 0.00316 µM): 35.9%
viability, T/C (second compound 10 µM, first compound 0.01 µM): 32.7%
viability, T/C [27]: 20.8%
viability, T/C [28]: 20.4%
viability, T/C [29]: 13.4%
viability, T/C [30]: 9.08%

pIC50 (curve of first compound, second compound 0.000949 µM): 5.31
pIC50 (curve of first compound, second compound 0.003 µM): 5.29
pIC50 (curve of first compound, second compound 0.00949 µM): 5.31
pIC50 (curve of first compound, second compound 0.03 µM): 5.30
pIC50 (curve of first compound, second compound 0.0949 µM): 5.35
pIC50 (curve of first compound, second compound 0.3 µM): 5.42
SMILES: CC1(O)CCCC1n1c(=O)c(C(F)F)cc2cnc(NC3CCN(S(C)(=O)=O)CC3)nc21 (stereo not drawn) + CCn1c(-c2cccnc2C(C)OC)c2c3cc(ccc31)N1CCOC(CC(NC(=O)C(C(C)C)N(C)C(=O)C3(F)CCN(C(=O)C#CC(C)(C)N(C)C)CC3)C(=O)N3CCCC(N3)C(=O)OCC(C)(C)C2)C1
viability, T/C (second compound 0.000949 µM, first compound 0.0316 µM): 68.5%
viability, T/C (second compound 0.000949 µM, first compound 0.1 µM): 66.1%
viability, T/C (second compound 0.000949 µM, first compound 0.316 µM): 61.6%
viability, T/C (second compound 0.000949 µM, first compound 1 µM): 59.4%
viability, T/C (second compound 0.000949 µM, first compound 3.16 µM): 103%
viability, T/C (second compound 0.000949 µM, first compound 10 µM): 14.8%
viability, T/C (second compound 0.003 µM, first compound 0.0316 µM): 89.5%
viability, T/C (second compound 0.003 µM, first compound 0.1 µM): 67.8%
viability, T/C (second compound 0.003 µM, first compound 0.316 µM): 49.5%
viability, T/C (second compound 0.003 µM, first compound 1 µM): 82.7%
viability, T/C (second compound 0.003 µM, first compound 3.16 µM): 89.2%
viability, T/C (second compound 0.003 µM, first compound 10 µM): 13.5%
viability, T/C (second compound 0.00949 µM, first compound 0.0316 µM): 88.1%
viability, T/C (second compound 0.00949 µM, first compound 0.1 µM): 71.1%
viability, T/C (second compound 0.00949 µM, first compound 0.316 µM): 60.2%
viability, T/C (second compound 0.00949 µM, first compound 1 µM): 62.1%
viability, T/C (second compound 0.00949 µM, first compound 3.16 µM): 93.5%
viability, T/C (second compound 0.00949 µM, first compound 10 µM): 9.48%
viability, T/C (second compound 0.03 µM, first compound 0.0316 µM): 89.7%
viability, T/C (second compound 0.03 µM, first compound 0.1 µM): 77.1%
viability, T/C (second compound 0.03 µM, first compound 0.316 µM): 47.7%
viability, T/C (second compound 0.03 µM, first compound 1 µM): 76.1%
viability, T/C (second compound 0.03 µM, first compound 3.16 µM): 78.9%
viability, T/C (second compound 0.03 µM, first compound 10 µM): 13.6%
viability, T/C (second compound 0.0949 µM, first compound 0.0316 µM): 67.6%
viability, T/C (second compound 0.0949 µM, first compound 0.1 µM): 61.1%
viability, T/C (second compound 0.0949 µM, first compound 0.316 µM): 47.3%
viability, T/C (second compound 0.0949 µM, first compound 1 µM): 63.1%
viability, T/C (second compound 0.0949 µM, first compound 3.16 µM): 90.5%
viability, T/C (second compound 0.0949 µM, first compound 10 µM): 11.6%
viability, T/C (second compound 0.3 µM, first compound 0.0316 µM): 60.8%
viability, T/C (second compound 0.3 µM, first compound 0.1 µM): 37.9%
viability, T/C (second compound 0.3 µM, first compound 0.316 µM): 45.5%
viability, T/C (second compound 0.3 µM, first compound 1 µM): 58%
viability, T/C (second compound 0.3 µM, first compound 3.16 µM): 88.2%
viability, T/C (second compound 0.3 µM, first compound 10 µM): 9.67%

pIC50 (compound alone, run of 05/20/2024): > 9.02 and 8.98
SMILES: CCn1c(-c2cc(N3CCN(C)CC3)cnc2C(C)OC)c2c3cc(ccc31)-c1csc(n1)CC(NC(=O)C1CC1C)C(=O)N1CCCC(N1)C(=O)OCC(C)(C)C2 (stereo not drawn)
viability, T/C (compound 0.000949 µM): 46.5% [middle of 8 runs]
viability, T/C (compound 0.003 µM): 40.6% [middle of 8 runs]
viability, T/C (compound 0.00949 µM): 37.5% [middle of 8 runs]
viability, T/C (compound 0.03 µM): 21.3% [middle of 8 runs]
viability, T/C (compound 0.0949 µM): 12.8% [middle of 8 runs]
viability, T/C (compound 0.3 µM): 10.2% [middle of 8 runs]
